Assay results from patent EP0200345A2, “Anti-allergic or anti-inflammatory substituted (hetero)-aralkylamino-ortho-phenols” (BEECHAM GROUP PLC, priority 1985, dated 1986).
Structures can show the parent of a compound that is named as a salt.

Target: T1, RBL-1 5-lipoxygenase (Rattus norvegicus, UniProt P12527)
T1 construct: 5-Lipoxygenase enzyme was prepared as a 10,000g supernatant from RBL-1 cells; endogenous in cells; host or cells: RBL-1 cells (10,000g supernatant of the homogenate)
T1 sequence (P12527 1-673): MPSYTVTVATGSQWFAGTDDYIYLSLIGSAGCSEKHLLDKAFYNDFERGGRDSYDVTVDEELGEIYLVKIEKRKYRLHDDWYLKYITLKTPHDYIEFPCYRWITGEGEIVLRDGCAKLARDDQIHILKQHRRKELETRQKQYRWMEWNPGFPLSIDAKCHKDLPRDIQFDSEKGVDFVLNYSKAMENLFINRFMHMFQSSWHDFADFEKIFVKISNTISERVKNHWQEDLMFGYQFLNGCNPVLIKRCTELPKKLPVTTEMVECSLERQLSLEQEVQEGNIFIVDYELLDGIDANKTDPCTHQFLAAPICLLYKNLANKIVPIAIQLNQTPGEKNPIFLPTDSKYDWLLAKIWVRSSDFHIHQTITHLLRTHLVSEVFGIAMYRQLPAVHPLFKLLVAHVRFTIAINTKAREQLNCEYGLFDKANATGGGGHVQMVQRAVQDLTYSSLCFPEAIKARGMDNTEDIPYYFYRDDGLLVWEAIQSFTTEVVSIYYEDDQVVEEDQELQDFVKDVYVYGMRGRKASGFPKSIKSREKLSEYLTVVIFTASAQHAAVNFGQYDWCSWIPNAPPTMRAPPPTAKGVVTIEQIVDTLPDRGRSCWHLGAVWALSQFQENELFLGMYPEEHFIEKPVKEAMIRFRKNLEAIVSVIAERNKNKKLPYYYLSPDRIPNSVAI
Assay: RBL-1 5-lipoxygenase screen
Assay type: biochemical
Settings: compound concentration 0.05 µM; 10,000g supernatant from RBL-1 cells; formation of 5-HETE and 5,12-diHETE
Experimental: 1) RBL-1 5-LIPOXYGENASE SCREEN
5-Lipoxygenase enzyme was prepared as a 10,000g supernatant from RBL-1 cells by the method of Jakschik (Jakschik, B.A., F.F. Sun, L.M. Lee, and M.M. Steinhoff, 1980, Biochem. Biophys. Res. Comm. 95, 103). The 10,000g supernatant was diluted with homogenization buffer to the equivaleni of 1.5 -2.5 x 10^7 cells. ml.-' and made 2mM with respect to CaCl2. Aliquots of 0.5ml were then dispensed into tubes, and incubated at 29°C with 5ul ethanol or compound in ethanol at the desired concentration for 2min. Then [1-"C] arachidonic acid was added in buffer to give a final concentration of 6.3uM and 0.2uCi per incubation, and the reaction continued at 29°C for 2 min. The reaction was terminated by adding 1ml of acetone and cooling on ice, 0.5ml of ice-cold saline and 100ul of 2N formic acid were added, and the mixture was extracted with 2 ^x 2ml of chloroform. The extract was stored under N, at -20°C until analysis by chromatography. Activity was measured as the percentage of total radioactivity found in 5-HETE and 5,12-diHETE, and inhibition calculated as the decrease information of the sum of these two species in compound-treated incubates relative to control incubations.

Q: How did the inhibition at 0.05 µM turn out when `Cc1ccc(O)c(NCc2ccc(C#N)cc2)c1` [Example 5, 2-[(4-Cyanophenyl)methyl]amino-4-methylphenol] was run?
A: The inhibition at 0.05 µM was 42.8%.

Q: For `Cc1ccc(CNc2cc(C)ccc2O)cc1` [Example 6, 2-[(4-Methylphenyl)methyl]amino-4-methylphenol], which inhibition at 0.05 µM is on record?
A: The inhibition at 0.05 µM was 93.4%.

Q: `COc1ccc(CNc2cc(C)ccc2O)cc1` [Example 7, 2-[(4-methoxyphenyl)methyl]amino-4-methylphenol] was tested. Which inhibition at 0.05 µM did it give?
A: The inhibition at 0.05 µM was 61.7%.

Q: How did the inhibition at 0.05 µM turn out when `Cc1ccc(O)c(NCc2ccc(Cl)cc2)c1` [Example 8, 2-[(4-chlorophenyl)methyl]amino-4-methylphenol] was run?
A: The inhibition at 0.05 µM was 91.4%.

Q: With `Cc1ccc(O)c(NCc2ccco2)c1` [Example 9, 2-[(2-furyl)methyl]amino-4-methylphenol] as the molecule, how does the inhibition at 0.05 µM read?
A: Its inhibition at 0.05 µM is 31.4%.

Q: Which inhibition at 0.05 µM does the source give for `Cc1ccc(O)c(NCc2cccc(C(F)(F)F)c2)c1` [Example 10, 2-[(3-trifluoromethylphenyl)methyl]amino-4-methylphenol] here?
A: The inhibition at 0.05 µM was 89.5%.

Q: With `Cc1ccc(O)c(NCc2ccc(F)cc2)c1` [Example 11, 2-[(4-fluorophenyl)methyl]amino-4-methyl phenol] as the molecule, how does the inhibition at 0.05 µM read?
A: Its inhibition at 0.05 µM is 93.2%.

Q: For `Cc1ccc(O)c(NCc2ccc(Cl)c(Cl)c2)c1` [Example 12, 2-[(3,4 dichlorophenyl)methyl]amino-4-methyl phenol], which inhibition at 0.05 µM is on record?
A: The inhibition at 0.05 µM was 73.7%.

Q: `Cc1ccc(O)c(NCc2cccs2)c1` [Example 13, 2-[(thien-2-yl)methyl]amino-4-methyl phenol] was tested. Which inhibition at 0.05 µM did it give?
A: The inhibition at 0.05 µM was 49.7%.

Q: Which inhibition at 0.05 µM does the source give for `Cc1ccc(O)c(NCc2ccc(Br)cc2)c1` [Example 14, 2-[(4-bromophenyl)methyl]amino-4-methyl phenol] here?
A: The inhibition at 0.05 µM was 64.2%.

Q: How did the inhibition at 0.05 µM turn out when `Cc1ccc(O)c(NCc2cccc(Cl)c2)c1` [Example 15] was run?
A: The inhibition at 0.05 µM was 85%.

Q: Which inhibition at 0.05 µM does the source give for `Cc1ccc(O)c(NCc2cccc(F)c2)c1` [Example 16, 2-[(3-fluorophenyl)methyl]amino-4-methyl phenol] here?
A: Its inhibition at 0.05 µM is 76%.

Q: `Cc1ccc(O)c(NC(C)c2ccccc2)c1` (stereo not drawn) [Example 17, 2 -(α -Methylbenzyl)amino -4 -methylphenol] was tested. Which inhibition at 0.05 µM did it give?
A: Its inhibition at 0.05 µM is 34%.

Q: Which inhibition at 0.05 µM does the source give for `CC(C)c1ccc(O)c(NCc2ccccc2)c1` [Example 20, 2-phenylmethylamino-4-iso-propylphenol] here?
A: The inhibition at 0.05 µM was 77%.

Q: With `CC(C)(C)c1ccc(O)c(NCc2ccccc2)c1` [Example 21, 2-phenylmethylamino-4-tert-butylphenol] as the molecule, how does the inhibition at 0.05 µM read?
A: The inhibition at 0.05 µM was 35%.

Q: `Oc1ccc(Cl)cc1NCc1ccccc1` [Example 22, 2-phenylmethylamino-4-chlorophenol] was tested. Which inhibition at 0.05 µM did it give?
A: Its inhibition at 0.05 µM is 81%.

Q: Which inhibition at 0.05 µM does the source give for `CCc1ccc(O)c(NCc2ccccc2)c1` [Example 24, 2-phenylmethylamino-4-ethylphenol] here?
A: The inhibition at 0.05 µM was 20%.

Q: Which inhibition at 0.05 µM does the source give for `Cc1ccc(O)c(NCc2ccc([N+](=O)[O-])cc2)c1` [Example 25] here?
A: The inhibition at 0.05 µM was 80%.

Q: For `Cc1ccc(O)c(NCc2ccc(C(C)C)cc2)c1` [Example 26], which inhibition at 0.05 µM is on record?
A: Its inhibition at 0.05 µM is 80%.

Q: `Cc1ccc(O)c(NCc2ccc(O)cc2)c1` [Example 27, 2-[(4-hydroxyphenyl)methyl]amino-4-methylphenol] was tested. Which inhibition at 0.05 µM did it give?
A: Its inhibition at 0.05 µM is 12%.

Q: Which inhibition at 0.05 µM does the source give for `Cc1ccc(O)c(NCCc2ccccc2)c1` [Example 28, 2-phenylethylamino-4-methylphenol] here?
A: Its inhibition at 0.05 µM is 86%.

Same assay, conditions: compound concentration 1 µM; 10,000g supernatant from RBL-1 cells; formation of 5-HETE and 5,12-diHETE

Q: `O=C(c1ccccc1)c1cc(NCc2ccccc2)c(O)cc1O` [Example 29, 4-Benzoyl-6-(Phenylmethylamino)resorcinol hydrochloride] was tested. Which inhibition at 1 µM did it give?
A: Its inhibition at 1 µM is 94%.

Q: Which inhibition at 1 µM does the source give for `Cc1ccc(O)c(N(Cc2ccccc2)Cc2ccccc2)c1` [Example 30, 2-Dibenzylamino-4-methylphenol] here?
A: Its inhibition at 1 µM is 91%.

Same assay, conditions: compound concentration 20 µM; 10,000g supernatant from RBL-1 cells; formation of 5-HETE and 5,12-diHETE

Q: `Cc1ccc(O)c(NCc2ccccc2)c1` [Example 3, 2-Phenylmethyfamino-4-methylphenol] was tested. Which inhibition at 20 µM did it give?
A: Its inhibition at 20 µM is 95.4%.

Q: Which inhibition at 20 µM does the source give for `Oc1ccc(Br)cc1NCc1ccccc1` [Example 23, 2-phenylmethylamino-4-bromophenol] here?
A: Its inhibition at 20 µM is 98%.
